Laboratory results taken from US7662769B2, “Glycosyltransferase GnT-V having neovascularization action” (Suntory Holdings Limited, priority 2002, dated 2010).
“Also recorded” adds a separate entry of the source. Where no end group is shown, it is not given here.

How the values were obtained:
chicken microvessels = experiment: CAM (chorioallantoic membrane) assay of neovascularization; format: in vivo; details: ex-vivo, chicken embryo CAM
Procedure: Acceleration of neovascularization by a GnT-V transformant was confirmed by a CAM (chorioallantoic membrane) assay using an embryo of a chicken fertilized egg. The CAM assay was conducted by a method of Yen et al. (Yen, L., et al., Oncogene 19, 3460-3469 (2000)) and a method of Bernardini (Bernardini, G., et al., Blood 96, 4039-4045 (2000)), both being slightly modified. CAM 8 days after fertilization of white Leghorn was used, and 1×10^5 cells thereof were inoculated on a collagen sponge and maintained for 4 hours. A 5 mm silicon ring was placed on CAM on the collagen sponge and maintained for 48 hours.
Induction of neovascularization by GnT-V was confirmed also by other in vitro neovascularization assays such as a capillary-like tube formation assay (Ashoton, A. W., et al., J. Biol. Chem. 274, 35562-35570 (1999)) and a migration assay (Zeng, H., et al., J. Biol. Chem. 276, 3271-3279 (2001)) using HUVEC.

HSPG on HUVEC = experiment: release of FGF-2 from HSPG on HUVEC (FGF-2 ELISA of supernatant); format: cell-based, human; details: 4° C., 2 hours; FIG. 5
Excerpt: A basic peptide (KRKRKK peptide) composed of Lys-Arg-Lys-Arg-Lys-Lys (SEQ ID NO: 11) which is an amino acid sequence of from 264 to 269 and a non-basic control peptide (FSGGPL peptide) composed of Phe-Ser-Gly-Gly-Pro-Leu (SEQ ID NO: 12) which is an amino acid sequence of from 291 to 296, of GnT-V, were synthesized, and an influence of these peptides on growth of HUVEC was examined. The peptide was synthesized by a peptide synthesizer A432 (manufactured by Applied Biosystems), and purified by reverse phase HPLC, then, its molecular weight and degree of purification were confirmed by MALDI TOF-MS (Voyager-DE (registered trademark) RP; manufactured by PerSeptive Biosystems). The concentration of FGF-2 was measured by a known method (Barillari, G., et al., American J. Patho. 152, 1161-1166 (1998)). […] After centrifugation at 4° C. and 3000 rpm for 5 minutes, the supernatant was collected, the concentration of FGF-2 in the supernatant was measured in an FGF-2 ELISA system (manufactured by R&D Systems) according to a manual of this system.
As described above, various deficient variants of GnT-V and synthetic peptides were added at 4° C. to culture solution of HUVEC, and the amount of FGF-2 released from HSPG on HUVEC was measured.

HUVEC = HUVEC differentiation and growth, incorporation of [3H]-thymidine (DNA synthesis); format: cell-based, human; details: [3H]-thymidine incorporation; FIG. 2, 3B, 6
Procedure: For in vitro evaluation of induction of neovascularization by a GnT-V transformant, the amount of synthesis of DNA of human umbilical vein […] cells (HUVEC) after stimulation with culture solution of a GnT-V transformant was measured by a method of Soker et al.(Soker, S., et al., J. Biol. Chem. 272, 31582-31588 (1997)). HUVEC was inoculated on a 96-well plate coated with type I collagen at a rate of 2×10^3 cells per well, and 24 hours later, the medium was substituted with an MCDB131 medium (not containing FBS and FGF-2) containing 0.1% […] and a starved condition was maintained for 24 hours. The medium was substituted with culture solution of the WiDr cell transformed with the glycosyltransferase gene described in Example 1, and HUVEC was stimulated for 24 hours. HUVEC was maintained for 8 hours with [^3H]-thymidine (1 μCi/ml), and incorporation of [^3H]-thymidine into HUVEC was analyzed by MicroBeta-Counter (manufactured by Wallac) to measure the amount of synthesis of DNA. The result was shown as the mean value of assay results of 6 wells, and the standard deviation was measured. All experiments were repeated at least three times, and the same results were obtained. As apparent from FIG. 1, DNA synthesis of HUVEC stimulated with the culture solution of WiDr cells transformed with a GnT-V gene increased, however, the same effect was not observed in culture solution of WiDr cells transformed with other glycosyltransferase genes.
Purification of a neovascularization factor present in culture solution of WiDr cells transformed with a GnT-V gene was conducted using various column chromatographies. The neovascularization activity of each fraction was evaluated by differentiation and growth of HUVEC described in Example 3. In heparin affinity chromatography, a fraction of high growth activity of HUVEC was eluted with 0.3 M NaCl. Since known growth factors such as FGF-1, FGF-2, VEGF, placenta-induced growth factor (PIGF) and hepatocyte growth factor (HGF) and the like are eluted with 0.8 to 1.5 M NaCl (Hauser, S. & Weich H. A., Growth Factor 9, 259-268 (1993). Gohda, E., et al., J. Clin. Invest. 81, 414-419 (1998). Marez, A., et al., Biochimie 69, 125-129 (1987). Risau, W., et al., The EMBO J. 7, 959-962 (1988). Rothenthal, R. A., et al., Growth Factor 4, 53-59 (1990)), the above-mentioned nature is utterly different from the natures of these known growth factors. […] A fraction eluted with 0.3 M NaCl in heparin affinity chromatography was subjected to Western blot analysis using an anti-GnT-V antibody to find that the reaction of the anti-GnT-V antibody and the differentiation and growth activity of HUVEC are consistent each other, and the main protein having a differentiation and growth activity of HUVEC present in the fraction is GnT-V itself.

[1] = glycosyltransferase activity of GnT-V deficient variants; format: biochemical; details: recombinant variants from Sf21 cells
Excerpt: For clarifying which domain of GnT-V is involved in HUVEC growth accelerating activity, a GnT-V lacking variant shown in FIG. 3A was produced. The method of production of a GnT-VΔ188 plasmid is disclosed in a literature of Sasai et al (Sasai, K., et al., Glycobiology (in press)). A transfer plasmid having a GnT-VΔ233 gene was produced by binding a DNA fragment of 1521 base pairs encoding polyhistidine tag at the C-terminal and an amino acid sequence of from Glu234 to Leu741 of human GnT-V, obtained by cutting a GnT-VΔ188 plasmid with EcoRI and EagI, to an EcoRI-EagI site of a transfer vector pAcGP67-A (manufactured by PharMingen). A transfer plasmid having a GnT-VΔ436 gene was produced by binding a DNA fragment of 912 base pairs encoding polyhistidine tag at the C terminal and an amino acid sequence of from Ile437 to Leu741, of human GnT-V, obtained by cutting a GnT-VΔ188 plasmid with EcoRV and EagI, to an EcoRV-EagI site of a transfer vector pAcGP67-A. For production of a recombinant Baculovirus, an insect cell Sf21 was transformed with the transfer plasmid obtained above according to a method known in a literature (Ikeda, Y., et al., J. Biochem. 128, 609-619 (2000)). The recombinant glycosyltransferase derived from the transformed Sf21 cell was purified by Ni^2+-chelating affinity chromatography according to a method disclosed in a literature of Sasaki et al (Sasai, K., et al., Glycobiology (in press)).

| Molecule | induction of neovascularization in CAM assay (chicken microvessels) | release of FGF-2 from HSPG on HUVEC (HSPG on HUVEC) | differentiation and growth of HUVEC (HUVEC growth accelerating activity) (HUVEC) | glycosyltransferase activity [1] |
| --- | --- | --- | --- | --- |
| FGF-2: fibroblast growth factor-2 [reference compound] | induced neovascularization of chicken microvessels | – | – | – |
| FSGGPL [FSGGPL peptide, reference compound] | did not have a neovascularization activity | did not affect release of FGF-2 | – | – |
| KRKRKK [KRKRKK peptide] | induced neovascularization likewise | released FGF-2 | accelerated growth of HUVEC at the same degree as GnT-VΔ73 | – |
| heparin [reference compound] | – | induced release of FGF-2 | – | – |
| GnT-VΔ73: soluble recombinant GnT-V maintaining a glycosyltransferase activity but lacking in transmembrane portion, prepared by a Baculovirus system (protein, UniProt Q09328 74-741, looked up, fragment) AGVMTAYDLKKTLAVLLDNILQRIGKLESKVDNLVVNGTGTNSTNSTTAVPSLVALEKINVADIINGAQEKCVLPPMDGYPHCEGKIKWMKDMWRSDPCYADYGVDGSTCSFFIYLSEVENWCPHLPWRAKNPYEEADHNSLAEIRTDFNILYSMMKKHEEFRWMRLRIRRMADAWIQAIKSLAEKQNLEKRKRKKVLVHLGLLTKESGFKIAETAFSGGPLGELVQWSDLITSLYLLGHDIRISASLAELKEIMKKVVGNRSGCPTVGDRIVELIYIDIVGLAQFKKTLGPSWVHYQCMLRVLDSFGTEPEFNHANYAQSKGHKTPWGKWNLNPQQFYTMFPHTPDNSFLGFVVEQHLNSSDIHHINEIKRQNQSLVYGKVDSFWKNKKIYLDIIHTYMEVHATVYGSSTKNIPSYVKNHGILSGRDLQFLLRETKLFVGLGFPYEGPAPLEAIANGCAFLNPKFNPPKSSKNTDFFIGKPTLRELTSQHPYAEVFIGRPHVWTVDLNNQEEVEDAVKAILNQKIEPYMPYEFTCEGMLQRINAFIEKQDFCHGQVMWPPLSALQVKLAEPGQSCKQVCQESQLICEPSFFQHLNKDKDMLKYKVTCQSSELAKDILVPSFDPKNKHCVFQGDLLLFSCAGAHPRHQRVCPCRDFIKGQVALCKDCL | induced neovascularization of chicken microvessels | released FGF-2 | increased in addition amount-dependent manner; also recorded: had an HUVEC growth and differentiation accentuation action | – |
| α1,6-fucosyltransferase (protein, UniProt Q9BYC5 1-575, looked up, recombinant α1,6-fucosyltransferase used as control glycosyltransferase) Alpha-(1,6)-fucosyltransferase: MRPWTGSWRWIMLILFAWGTLLFYIGGHLVRDNDHPDHSSRELSKILAKLERLKQQNEDLRRMAESLRIPEGPIDQGPAIGRVRVLEEQLVKAKEQIENYKKQTRNGLGKDHEILRRRIENGAKELWFFLQSELKKLKNLEGNELQRHADEFLLDLGHHERSIMTDLYYLSQTDGAGDWREKEAKDLTELVQRRITYLQNPKDCSKAKKLVCNINKGCGYGCQLHHVVYCFMIAYGTQRTLILESQNWRYATGGWETVFRPVSETCTDRSGISTGHWSGEVKDKNVQVVELPIVDSLHPRPPYLPLAVPEDLADRLVRVHGDPAVWWVSQFVKYLIRPQPWLEKEIEEATKKLGFKHPVIGVHVRRTDKVGTEAAFHPIEEYMVHVEEHFQLLARRMQVDKKRVYLATDDPSLLKEAKTKYPNYEFISDNSISWSAGLHNRYTENSLRGVILDIHFLSQADFLVCTFSSQVCRVAYEIMQTLHPDASANFHSLDDIYYFGGQNAHNQIAIYAHQPRTADEIPMEPGDIIGVAGNHWDGYSKGVNRKLGRTGLYPSYKVREKIETVKYPTYPEAEK | – | – | did not show HUVEC growth accelerating activity at all | – |
| GnT-VΔ188: GnT-V lacking variant shown in FIG. 3A, recombinant from Sf21 cells (protein, UniProt Q09328 189-741, looked up, fragment) LSEVENWCPHLPWRAKNPYEEADHNSLAEIRTDFNILYSMMKKHEEFRWMRLRIRRMADAWIQAIKSLAEKQNLEKRKRKKVLVHLGLLTKESGFKIAETAFSGGPLGELVQWSDLITSLYLLGHDIRISASLAELKEIMKKVVGNRSGCPTVGDRIVELIYIDIVGLAQFKKTLGPSWVHYQCMLRVLDSFGTEPEFNHANYAQSKGHKTPWGKWNLNPQQFYTMFPHTPDNSFLGFVVEQHLNSSDIHHINEIKRQNQSLVYGKVDSFWKNKKIYLDIIHTYMEVHATVYGSSTKNIPSYVKNHGILSGRDLQFLLRETKLFVGLGFPYEGPAPLEAIANGCAFLNPKFNPPKSSKNTDFFIGKPTLRELTSQHPYAEVFIGRPHVWTVDLNNQEEVEDAVKAILNQKIEPYMPYEFTCEGMLQRINAFIEKQDFCHGQVMWPPLSALQVKLAEPGQSCKQVCQESQLICEPSFFQHLNKDKDMLKYKVTCQSSELAKDILVPSFDPKNKHCVFQGDLLLFSCAGAHPRHQRVCPCRDFIKGQVALCKDCL | – | released FGF-2 | had an HUVEC growth and differentiation accentuation action | had a glycosyltransferase activity |
